Measured values reported in patent US9469650B2, “Melampomagnolide B derivatives” (BOARD OF TRUSTEES OF THE UNIVERSITY OF ARKANSAS, priority 2013, dated 2016).
Where two headings read alike, the source gives them in different places.

Tests used:
A498 = experiment: panel of 60 human tumor cell lines, growth inhibition (Renal Cancer); conditions: A498
PC-3 = experiment: panel of 60 human tumor cell lines, growth inhibition (Prostate Cancer); conditions: PC-3
OVCAR-3 = experiment: panel of 60 human tumor cell lines, growth inhibition (Ovarian Cancer); conditions: OVCAR-3
786-0 = experiment: panel of 60 human tumor cell lines, growth inhibition (Renal Cancer); conditions: 786-0
U251 = experiment: panel of 60 human tumor cell lines, growth inhibition (CNS Cancer); conditions: U251
DU-145 = experiment: panel of 60 human tumor cell lines, growth inhibition (Prostate Cancer); conditions: DU-145
NCI-H460 = experiment: panel of 60 human tumor cell lines, growth inhibition (Non-Small Cell Lung Cancer); conditions: NCI-H460
NCI-H226 = experiment: as above; conditions: NCI-H226
HOP-92 = experiment: as above; conditions: HOP-92
T-47D = experiment: panel of 60 human tumor cell lines, growth inhibition (Breast Cancer); conditions: T-47D
MDA-MB-468 = experiment: as above; conditions: MDA-MB-468
HOP-62 = experiment: panel of 60 human tumor cell lines, growth inhibition (Non-Small Cell Lung Cancer); conditions: HOP-62
K-562 = experiment: panel of 60 human tumor cell lines, growth inhibition (Leukemia); conditions: K-562
SK-MEL-5 = experiment: panel of 60 human tumor cell lines, growth inhibition (Melanoma); conditions: 8K-MEL-5
HS 578T = experiment: panel of 60 human tumor cell lines, growth inhibition (Breast Cancer); conditions: HS 578T
MOLT-4 = experiment: panel of 60 human tumor cell lines, growth inhibition (Leukemia); conditions: MOLT-4
UACC-257 = experiment: panel of 60 human tumor cell lines, growth inhibition (Melanoma); conditions: UACC-257

Compound: C=C1C(=O)O[C@H]2[C@H]1CC/C(COC(=O)N1CCC(F)(F)CC1)=C\CC[C@@]1(C)O[C@@H]21 [JVM 2-66]
- GI50 (A498): 1.59 µM
- TGI (A498): 6.87E−6
- Percent Growth (A498; Log10 Concentration −4.0): −93%
- Percent Growth (A498; Log10 Concentration −5.0): −13%
- Percent Growth (A498; Log10 Concentration −6.0): 66%
- Percent Growth (A498; Log10 Concentration −7.0): 73%
- Percent Growth (A498; Log10 Concentration −8.0): 84%
- GI50 (PC-3): 10.8 µM
- TGI (PC-3): 2.41E−5
- Percent Growth (PC-3; Log10 Concentration −4.0): −89%
- Percent Growth (PC-3; Log10 Concentration −5.0): 55%
- Percent Growth (PC-3; Log10 Concentration −6.0): 97%
- Percent Growth (PC-3; Log10 Concentration −7.0): 99%
- Percent Growth (PC-3; Log10 Concentration −8.0): 101%
- GI50 (OVCAR-3): 1.69 µM
- TGI (OVCAR-3): 4.03E−6
- Percent Growth (OVCAR-3; Log10 Concentration −4.0): −99%
- Percent Growth (OVCAR-3; Log10 Concentration −5.0): −52%
- Percent Growth (OVCAR-3; Log10 Concentration −6.0): 80%
- Percent Growth (OVCAR-3; Log10 Concentration −7.0): 95%
- Percent Growth (OVCAR-3; Log10 Concentration −8.0): 101%
- GI50 (786-0): 3.67 µM
- TGI (786-0): 1.50E−5
- Percent Growth (786-0; Log10 Concentration −4.0): −81%
- Percent Growth (786-0; Log10 Concentration −5.0): 17%
- Percent Growth (786-0; Log10 Concentration −6.0): 93%
- Percent Growth (786-0; Log10 Concentration −7.0): 91%
- Percent Growth (786-0; Log10 Concentration −8.0): 97%
- TGI (U251): 2.66E−5
- Percent Growth (U251; Log10 Concentration −4.0): −99%
- Percent Growth (U251; Log10 Concentration −5.0): 73%
- Percent Growth (U251; Log10 Concentration −6.0): 92%
- Percent Growth (U251; Log10 Concentration −7.0): 96%
- Percent Growth (U251; Log10 Concentration −8.0): 96%
- GI50 (DU-145): 2.44 µM
- TGI (DU-145): 8.35E−6
- Percent Growth (DU-145; Log10 Concentration −4.0): −100%
- Percent Growth (DU-145; Log10 Concentration −5.0): −7%
- Percent Growth (DU-145; Log10 Concentration −6.0): 86%
- Percent Growth (DU-145; Log10 Concentration −7.0): 100%
- Percent Growth (DU-145; Log10 Concentration −8.0): 102%
- GI50 (HL-60(TB)): 2.04 µM
- TGI (HL-60(TB)): 7.15E−6
- Percent Growth (HL-60(TB); Log10 Concentration −4.0): −49%
- Percent Growth (HL-60(TB); Log10 Concentration −5.0): −13%
- Percent Growth (HL-60(TB); Log10 Concentration −6.0): 79%
- Percent Growth (HL-60(TB); Log10 Concentration −7.0): 84%
- Percent Growth (HL-60(TB); Log10 Concentration −8.0): 97%
- CC50 (HL-60(TB); read-out: LC50): > 100 µM
- GI50 (NCI-H460): 13.3 µM
- TGI (NCI-H460): 3.10E−5
- Percent Growth (NCI-H460; Log10 Concentration −4.0): −69%
- Percent Growth (NCI-H460; Log10 Concentration −5.0): 67%
- Percent Growth (NCI-H460; Log10 Concentration −6.0): 99%
- Percent Growth (NCI-H460; Log10 Concentration −7.0): 101%
- Percent Growth (NCI-H460; Log10 Concentration −8.0): 100%
- TGI (NCI-H226): 4.35E−6
- Percent Growth (NCI-H226; Log10 Concentration −4.0): −71%
- Percent Growth (NCI-H226; Log10 Concentration −5.0): −49%
- Percent Growth (NCI-H226; Log10 Concentration −6.0): 87%
- Percent Growth (NCI-H226; Log10 Concentration −7.0): 90%
- Percent Growth (NCI-H226; Log10 Concentration −8.0): 102%
- GI50 (HOP-92): 1.45 µM
- TGI (HOP-92): 3.89E−6
- Percent Growth (HOP-92; Log10 Concentration −4.0): −94%
- Percent Growth (HOP-92; Log10 Concentration −5.0): −48%
- Percent Growth (HOP-92; Log10 Concentration −6.0): 69%
- Percent Growth (HOP-92; Log10 Concentration −7.0): 92%
- Percent Growth (HOP-92; Log10 Concentration −8.0): 95%
- GI50 (T-47D): 3.07 µM
- TGI (T-47D): 1.64E−5
- Percent Growth (T-47D; Log10 Concentration −4.0): −45%
- Percent Growth (T-47D; Log10 Concentration −5.0): 13%
- Percent Growth (T-47D; Log10 Concentration −6.0): 86%
- Percent Growth (T-47D; Log10 Concentration −7.0): 84%
- Percent Growth (T-47D; Log10 Concentration −8.0): 93%
- GI50 (MDA-MB-468): 0.578 µM
- TGI (MDA-MB-468): 2.65E−6
- Percent Growth (MDA-MB-468; Log10 Concentration −4.0): −75%
- Percent Growth (MDA-MB-468; Log10 Concentration −5.0): −48%
- Percent Growth (MDA-MB-468; Log10 Concentration −6.0): 36%
- Percent Growth (MDA-MB-468; Log10 Concentration −7.0): 96%
- Percent Growth (MDA-MB-468; Log10 Concentration −8.0): 88%
- GI50 (HOP-62): 13.6 µM
- TGI (HOP-62): 2.81E−5
- Percent Growth (HOP-62; Log10 Concentration −4.0): −87%
- Percent Growth (HOP-62; Log10 Concentration −5.0): 71%
- Percent Growth (HOP-62; Log10 Concentration −6.0): 93%
- Percent Growth (HOP-62; Log10 Concentration −7.0): 92%
- Percent Growth (HOP-62; Log10 Concentration −8.0): 101%
- GI50 (K-562): 3.45 µM
- TGI (K-562): 3.61E−5
- Percent Growth (K-562; Log10 Concentration −4.0): −10%
- Percent Growth (K-562; Log10 Concentration −5.0): 13%
- Percent Growth (K-562; Log10 Concentration −6.0): 93%
- Percent Growth (K-562; Log10 Concentration −7.0): 95%
- Percent Growth (K-562; Log10 Concentration −8.0): 104%
- GI50 (SK-MEL-5): 3.81 µM
- TGI (SK-MEL-5): 1.50E−5
- Percent Growth (SK-MEL-5; Log10 Concentration −4.0): −96%
- Percent Growth (SK-MEL-5; Log10 Concentration −5.0): 21%
- Percent Growth (SK-MEL-5; Log10 Concentration −6.0): 91%
- Percent Growth (SK-MEL-5; Log10 Concentration −7.0): 99%
- Percent Growth (SK-MEL-5; Log10 Concentration −8.0): 99%
- GI50 (HS 578T): 13.5 µM
- TGI (HS 578T): 7.06E−5
- Percent Growth (HS 578T; Log10 Concentration −4.0): −10%
- Percent Growth (HS 578T; Log10 Concentration −5.0): 59%
- Percent Growth (HS 578T; Log10 Concentration −6.0): 89%
- Percent Growth (HS 578T; Log10 Concentration −7.0): 93%
- Percent Growth (HS 578T; Log10 Concentration −8.0): 93%
- GI50 (MOLT-4): 2.05 µM
- TGI (MOLT-4): 5.71E−6
- Percent Growth (MOLT-4; Log10 Concentration −4.0): −39%
- Percent Growth (MOLT-4; Log10 Concentration −5.0): −27%
- Percent Growth (MOLT-4; Log10 Concentration −6.0): 85%
- Percent Growth (MOLT-4; Log10 Concentration −7.0): 85%
- Percent Growth (MOLT-4; Log10 Concentration −8.0): 94%
- GI50 (UACC-257): 2.34 µM
- TGI (UACC-257): 1.02E−5
- Percent Growth (UACC-257; Log10 Concentration −4.0): −90%
- Percent Growth (UACC-257; Log10 Concentration −5.0): 1%
- Percent Growth (UACC-257; Log10 Concentration −6.0): 79%
- Percent Growth (UACC-257; Log10 Concentration −7.0): 96%
- Percent Growth (UACC-257; Log10 Concentration −8.0): 94%
